# Laboratory results as given in patent US12617783B2, “Heterocyclic GLP-1R agonists” (BIOMEA FUSION, INC., priority 2024, dated 2026).
# Biological target: T1, human GLP-1R (Homo sapiens, UniProt P43220)
# T1 construct: host or cells: HEK293
# Assay: GLP-1R cAMP assay (Example B1a, HTRF, 30 min at room temperature)
# Type: cell-based
# Settings: cAMP accumulation in HEK293 expressing human GLP-1R, no BETP, 30 min room temperature (Method B1a, compounds ID 1-609), Table 1; read-out: EC50
# Procedure, shortened: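 Competitive HTRF read-out of cAMP after 30 min room-temperature stimulation, BETP absent, of human GLP-1R-HEK293 cells (1,000/well) in HEPES buffer with 500 μM IBMX and 0.1% BSA. Activation normalised to GLP-1(7-37) positive control. EC50 from 4-parameter non-linear regression.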
# T1 sequence (P43220 24-463): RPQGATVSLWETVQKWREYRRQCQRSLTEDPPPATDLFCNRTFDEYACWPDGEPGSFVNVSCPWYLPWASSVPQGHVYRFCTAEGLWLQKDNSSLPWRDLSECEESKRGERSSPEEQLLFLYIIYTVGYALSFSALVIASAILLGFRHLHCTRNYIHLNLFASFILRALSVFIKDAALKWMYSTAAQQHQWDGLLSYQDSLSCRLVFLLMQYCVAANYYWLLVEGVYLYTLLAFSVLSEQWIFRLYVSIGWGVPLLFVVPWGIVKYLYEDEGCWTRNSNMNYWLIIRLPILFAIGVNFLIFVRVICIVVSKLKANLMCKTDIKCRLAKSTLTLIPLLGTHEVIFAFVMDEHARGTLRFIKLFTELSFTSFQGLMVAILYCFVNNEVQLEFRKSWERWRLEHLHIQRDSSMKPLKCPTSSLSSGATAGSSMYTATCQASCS
row,EC50 [nM],Structure (SMILES)
1,55,"Cc1cc(-n2nc3c(c2-n2ccn(-c4ccc5cnncc5c4F)c2=O)[C@@H]2CC[C@H](C3)N2C(=O)c2cc3cc([C@H]4CCOC5(CC5)C4)ccc3n2[C@@]2(c3noc(=O)[nH]3)C[C@@H]2C)cc(C)c1F [Compound 437, 3-((1S,2S)-1-(2-((4S,7R)-2-(4-fluoro-3,5-dimethylphenyl)-3-(3-(5-fluorophthalazin-6-yl)-2-oxo-2,3-dihydro-1H-imidazol-1-yl)-2,4,5,6,7,8-hexahydro-4,7-epiminocyclohepta [c]pyrazole-9-carbonyl)-5-((S)-4-oxaspiro[2.5]octan-7-yl)-1H-indol-1-yl)-2-methylcyclopropyl)-1,2,4-oxadiazol-5 (4H)-one]"
2,80.4,"Cc1cc(-n2nc3c(c2-n2ccn(-c4ccc5c(cnn5C)c4F)c2=O)[C@H](C)N(C(=O)c2cc4cc([C@H]5CCOC6(CC6)C5)ccc4n2[C@@]2(c4noc(=O)[nH]4)C[C@@H]2C)CCC3)cc(C)c1F [Compound 606, 3-((1S,2S)-1-(2-((S)-3-(3-(4-fluoro-1-methyl-1H-indazol-5-yl)-2-oxo-2,3-dihydro-1H-imidazol-1-yl)-2-(4-fluoro-3,5-dimethylphenyl)-4-methyl-2,4,5,6,7,8-hexahydropyrazolo[4,3-c]azepine-5-carbonyl)-5-((S)-4-oxaspiro[2.5]octan-7-yl)-1H-indol-1-yl)-2-methylcyclopropyl)-1,2,4-oxadiazol-5 (4H)-one]"
3,699,"Cc1cc(-n2nc3c(c2-n2ccn(-c4ccc5c(cnn5C)c4F)c2=O)[C@@H]2CC[C@H](C3)N2C(=O)c2cc3cc([C@H]4CCOC(C)(C)C4)ccc3n2[C@@]2(C(=O)NC3CC3)C[C@@H]2C)cc(C)c1F [Compound 246, cis-(1S,2S)-N-cyclopropyl-1-[5-[(4S)-2,2-dimethyltetrahydropyran-4-yl]-2-[(1S,8R)-4-(4-fluoro-3,5-dimethyl-phenyl)-3-[3-(4-fluoro-1-methyl-indazol-5-yl)-2-oxo-imidazol-1-yl]-4,5,11-triazatricyclo[6.2.1.02,6]undeca-2,5-diene-11-carbonyl]indol-1-yl]-2-methyl-cyclopropanecarboxamide]"
4,836,"Cc1cc(-n2nc3c(c2-n2ccn(-c4ccc5c(cnn5C)c4F)c2=O)[C@@H]2CC[C@H](C3)N2C(=O)c2cc3cc(C4COC(C)(C)C4)ccc3n2[C@@]2(c3noc(=O)[nH]3)C[C@@H]2C)cc(C)c1F (stereo partly drawn) [Compound 418, 3-[(1S,2S)-1-[5-(5,5-dimethyltetrahydrofuran-3-yl)-2-[(1S,8R)-4-(4-fluoro-3,5-dimethyl-phenyl)-3-[3-(4-fluoro-1-methyl-indazol-5-yl)-2-oxo-imidazol-1-yl]-4,5,11-triazatricyclo[6.2.1.02,6]undeca-2,5-diene-11-carbonyl]indol-1-yl]-2-methyl-cyclopropyl]-4H-1,2,4-oxadiazol-5-one]"

# The remaining lines, values behind:
row,Structure (SMILES),EC50 [nM]
1,"Cc1cc(-n2nc3c(c2-n2ccn(-c4ccc5c(cnn5C)c4F)c2=O)[C@@H]2CC[C@H](C3)N2C(=O)c2nc3cc(C4CCOC(C)(C)C4)ccc3n2C2(c3noc(=O)[nH]3)CC2)cc(C)c1F (stereo partly drawn) [Compound 130, 3-[1-[5-(2,2-dimethyltetrahydropyran-4-yl)-2-[(1S,8R)-4-(4-fluoro-3,5-dimethyl-phenyl)-3-[3-(4-fluoro-1-methyl-indazol-5-yl)-2-oxo-imidazol-1-yl]-4,5,11-triazatricyclo[6.2.1.02,6]undeca-2,5-diene-11-carbonyl]benzimidazol-1-yl]cyclopropyl]-4H-1,2,4-oxadiazol-5-one]",> 10000
2,"Cc1cc(-n2nc3c(c2-n2ccn(-c4cc(F)c5c(cnn5C)c4F)c2=O)[C@@H]2CC[C@H](C3)N2C(=O)c2cc3cc([C@H]4CCOC(C)(C)C4)ncc3n2[C@@]2(c3noc(=O)[nH]3)C[C@@H]2C)cc(C)c1F [Compound 236, 3-[(1S,2S)-1-[2-[(1S,8R)-3-[3-(4,7-difluoro-1-methyl-indazol-5-yl)-2-oxo-imidazol-1-yl]-4-(4-fluoro-3,5-dimethyl-phenyl)-4,5,11-triazatricyclo[6.2.1.02,6]undeca-2,5-diene-11-carbonyl]-5-[(4S)-2,2-dimethyltetrahydropyran-4-yl]pyrrolo[2,3-c]pyridin-1-yl]-2-methyl-cyclopropyl]-4H-1,2,4-oxadiazol-5-one]",785
3,"Cc1cc(-n2nc3c(c2-n2ccn(-c4ccc5c(cnn5C)c4F)c2=O)[C@@H]2CC[C@H](C3)N2C(=O)c2cc3cc([C@H]4CCOC(C)(C)C4)ccc3n2[C@@]2(C(N)=O)C[C@@H]2C)cc(C)c1F [Compound 138, cis-(1S,2S)-1-[5-[(4S)-2,2-dimethyltetrahydropyran-4-yl]-2-[(1S,8R)-4-(4-fluoro-3,5-dimethyl-phenyl)-3-[3-(4-fluoro-1-methyl-indazol-5-yl)-2-oxo-imidazol-1-yl]-4,5,11-triazatricyclo[6.2.1.02,6]undeca-2,5-diene-11-carbonyl]indol-1-yl]-2-methyl-cyclopropanecarboxamide]",1050
4,"Cc1cc(-n2nc3c(c2-n2ccn(-c4ccc5c(cnn5C)c4F)c2=O)[C@@H]2CC[C@H](C3)N2C(=O)c2cc3nc(C4CCOC(C)(C)C4)ccc3n2[C@@]2(c3noc(=O)[nH]3)C[C@@H]2C)cc(C)c1F (stereo partly drawn) [Compound 210, 3-[(1S,2S)-1-[5-(2,2-dimethyltetrahydropyran-4-yl)-2-[(1S,8R)-4-(4-fluoro-3,5-dimethyl-phenyl)-3-[3-(4-fluoro-1-methyl-indazol-5-yl)-2-oxo-imidazol-1-yl]-4,5,11-triazatricyclo[6.2.1.02,6]undeca-2,5-diene-11-carbonyl]pyrrolo[3,2-b]pyridin-1-yl]-2-methyl-cyclopropyl]-4H-1,2,4-oxadiazol-5-one]",959
5,"Cc1cc(-n2nc3c(c2-c2ncn(-c4ccc5c(cnn5C)c4F)c2C)[C@H](C)N(C(=O)c2cc4cc(C5=CCC(F)(F)CC5)ccc4n2C2(c4noc(=O)[nH]4)CC2)CC3)cc(C)c1F [Compound 105, 3-[1-[5-(4,4-difluorocyclohexen-1-yl)-2-[(4S)-2-(4-fluoro-3,5-dimethyl-phenyl)-3-[1-(4-fluoro-1-methyl-indazol-5-yl)-5-methyl-imidazol-4-yl]-4-methyl-6,7-dihydro-4H-pyrazolo[4,3-c]pyridine-5-carbonyl]indol-1-yl]cyclopropyl]-4H-1,2,4-oxadiazol-5-one]",> 10000
6,"CCc1nccc(-c2ccc3c(c2)cc(C(=O)N2[C@@H]4CC[C@H]2c2c(nn(-c5cc(C)c(F)c(C)c5)c2-n2ccn(-c5ccc6c(cnn6C)c5F)c2=O)C4)n3[C@@]2(c3noc(=O)[nH]3)C[C@@H]2C)c1C [Compound 219, 3-[(1S,2S)-1-[5-(2-ethyl-3-methyl-4-pyridyl)-2-[(1S,8R)-4-(4-fluoro-3,5-dimethyl-phenyl)-3-[3-(4-fluoro-1-methyl-indazol-5-yl)-2-oxo-imidazol-1-yl]-4,5,11-triazatricyclo[6.2.1.02,6]undeca-2,5-diene-11-carbonyl]indol-1-yl]-2-methyl-cyclopropyl]-4H-1,2,4-oxadiazol-5-one]",269
7,"CCP(=O)(CC)c1ccc(-n2ccn(-c3c4c(nn3-c3cc(C)c(F)c(C)c3)C[C@H]3CC[C@@H]4N3C(=O)c3cc4cc(C5CCOCC5)ccc4n3[C@@]3(c4noc(=O)[nH]4)C[C@@H]3C)c2=O)cc1NC [Compound 216, 3-[(1S,2S)-1-[2-[(1S,8R)-3-[3-[4-diethylphosphoryl-3-(methylamino)phenyl]-2-oxo-imidazol-1-yl]-4-(4-fluoro-3,5-dimethyl-phenyl)-4,5,11-triazatricyclo[6.2.1.02,6]undeca-2,5-diene-11-carbonyl]-5-tetrahydropyran-4-yl-indol-1-yl]-2-methyl-cyclopropyl]-4H-1,2,4-oxadiazol-5-one]",233
